Assay results taken from patent US5006511A, “Di- or tripeptide renin inhibitors containing lactam conformational restriction in achpa” (Merck & Co., Inc., priority 1988, dated 1991).
Where a SMILES comes first, the peptide text is derived from it. [ ]: non-standard residue; d: D form. The star is where a group is joined. Sta = CC(C)C[C@H](N)[C@@H](O)CC(=O)O; Isovaleryl = CC(C)CC(=O)*

Assays:
[1] = target: T1, human plasma renin (Homo sapiens, UniProt P00797); experiment: In vitro inhibition of human plasma renin (Boger et al., J. Med. Chem. 1985, 28, 1779); type: biochemical; details: human plasma renin assay
T1 construct: from tissue; host or cells: human plasma
T1 sequence (P00797 67-406): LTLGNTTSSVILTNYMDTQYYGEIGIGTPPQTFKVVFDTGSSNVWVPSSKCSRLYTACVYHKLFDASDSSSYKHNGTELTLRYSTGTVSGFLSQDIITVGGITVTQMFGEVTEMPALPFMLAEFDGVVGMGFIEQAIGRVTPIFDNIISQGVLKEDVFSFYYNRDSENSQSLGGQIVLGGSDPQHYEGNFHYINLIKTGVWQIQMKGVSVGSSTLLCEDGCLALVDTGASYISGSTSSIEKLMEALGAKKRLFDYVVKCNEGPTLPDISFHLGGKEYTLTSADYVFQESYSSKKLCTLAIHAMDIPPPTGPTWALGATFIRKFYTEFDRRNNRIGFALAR
Method: In vitro inhibition of human plasma renin was measured as described by Boger, et al., J. Med. Chem. (1985) 28, 1779.
They were analyzed for purity by HPLC (30 minute gradient, 5% CH3 CN--H2 O to 95% CH3 CN--H2 O buffered with 0.1% H3 PO4; C18 reverse phase column), and were analyzed for composition by C, H, and N combustion analysis. IC50 values were measured in vitro using the human plasma renin assay, as described by Boger et al. J. Med. Chem. (1985) 28, 1779.
They were analyzed for purity by HPLC under conditions given above, and were analyzed for composition by C, H, and N combustion analysis. IC50 values were measured as described above.

[2] = test system: hog renin; details: after the injection of hog renin into nephrectomized rats; Gross et al., Science 1972; cited from earlier work

Boc-Phe-His-(ACHP)-5(S)-Methoxymethyl-1-Methyl-2-Pyrrolidinone [Example 3D]
IC50 [1]: 71 nM

Boc-Phe-His-(ACHP)-5(S)-Hydroxymethyl)-1-Methyl-2-Pyrrolidinone [Example 3I]
IC50 [1]: 14 nM

Boc-Phe-His-(ACHP)-1-Methyl-5(S)-Vinyl-2-Pyrrolidinone [Example 3F]
IC50 [1]: 8 nM

Boc-Phe-His-(ACHP)-1-Methyl-5(R)-Vinyl-2-Pyrrolidinone [Example 3G]
IC50 [1]: 2.5 nM

Boc-Phe-His-(ACHP)-5(S)-Ethyl-1-Methyl-2-Pyrrolidinone [Example 3L]
IC50 [1]: 5.3 nM

Boc-Phe-His-(ACHP)-1-Methyl-2-Pyrrolidinone [Example 3A]
IC50 [1]: 9.9 nM

Boc-Phe-His-(ACHP)-5(S)-Acetoxymethyl)-1-Methyl-2-Pyrrolidinone [Example 3J]
IC50 [1]: 157 nM

Boc-Phe-His-(ACHP)-5(R)-Ethyl-1-Methyl-2-Pyrrolidinone [Example 3K]
IC50 [1]: 8.5 nM

Boc-Phe-His-(ACHP)-1-(2-Benzyloxyethyl-2-Pyrrolidinone [Example 3E]
IC50 [1]: 24 nM

Boc-Phe-His-(ACHP)-5(S)-Benzyloxymethyl-1-Methyl-2-Pyrrolidinone [Example 3C]
IC50 [1]: 4400 nM

Boc-Phe-His-(ACHP)-1-Cyclohexyl-2-Pyrrolidinone [Example 3B]
IC50 [1]: 10 nM

CC(C)CC(=O)N[C@H](C(=O)N[C@H](C(=O)N[C@@H](CC(C)C)[C@@H](O)CC(=O)N[C@@H](C)C(=O)N[C@@H](CC(C)C)[C@@H](O)CC(=O)O)C(C)C)C(C)C [pepstatin] (Isovaleryl-VV[Sta]A[Sta]-OH)
blood pressure in vivo [2]: reduces blood pressure in vivo
